Values quoted from earlier work as cited in publication PMC4360375 (Journal of Medicinal Chemistry, 2015).

Tested on: GABA uptake, rat synaptosome
Details: Figure 2; rat synaptosome GABA uptake; read-out: literature IC50; cited from earlier work
For `O=C(O)[C@@H]1CCCN(CCCCCC(c2ccccc2)c2ccccc2)C1` [compound 9, OC(=O)[C@@H]1CCCN(C1)CCCCCC(c1ccccc1)c1ccccc1], the IC50 is given as 1.59 µM.

Same assay, conditions: literature data set; ref 10.1016/S0968-0896(01)00148-1; cited from earlier work
For `O=C(O)[C@@H]1CCCN(CCO/N=C(/Cc2ccccc2)c2ccccc2)C1` [An_2001/6_16, O(\N=C(\Cc1ccccc1)/c1ccccc1)CCN1C[C@@H](CCC1)C(O)=O], the pIC50 is listed as 6.87. In the case of `CC(C)C/C=C(/C=N/OCCN1CCC[C@@H](C(=O)O)C1)c1ccccc1` [An_2001/6_22, O(\N=C\C(=C\CC(C)C)\c1ccccc1)CCN1C[C@@H](CCC1)C(O)=O], the pIC50 is given as 6.538. For `CC(C)/C=C(/C=N/OCCN1CCC[C@@H](C(=O)O)C1)c1ccccc1` [An_2001/6_21, O(\N=C\C(=C\C(C)C)\c1ccccc1)CCN1C[C@@H](CCC1)C(O)=O], the pIC50 is listed as 6.569. For `O=C(O)[C@@H]1CCCN(CCOC/C(=C\c2ccccc2)c2ccccc2)C1` [An_2001/6_42, O(CCN1C[C@@H](CCC1)C(O)=O)C\C(=C/c1ccccc1)\c1ccccc1], the pIC50 is given as 5.523. For `O=C(O)[C@@H]1CCCN(CCO/N=C2\CCCC[C@@H]2c2ccccc2)C1` [An_2001/6_24, O(\N=C\1/CCCC[C@@H]/1c1ccccc1)CCN1C[C@@H](CCC1)C(O)=O], the pIC50 is listed as 6.489. For `O=C(O)[C@@H]1CCCN(CCOC/C(=C/c2ccccc2)c2ccccc2)C1` [An_2001/6_41, O(CCN1C[C@@H](CCC1)C(O)=O)C\C(=C\c1ccccc1)\c1ccccc1], the pIC50 is listed as 6.297. For `O=C(O)[C@@H]1CCCN(CCOCCc2ccccc2)C1` [An_2001/6_43, O(CCc1ccccc1)CCN1C[C@@H](CCC1)C(O)=O], the pIC50 is given as 5.347. For `O=C(O)[C@@H]1CCCN(CCOCc2ccccc2Cc2ccccc2)C1` [An_2001/6_37, O(Cc1ccccc1Cc1ccccc1)CCN1C[C@@H](CCC1)C(O)=O], the pIC50 is given as 6.495. In the case of `O=C(O)[C@@H]1CCCN(CCOc2ccccc2)C1` [An_2001/6_32, O(CCN1C[C@@H](CCC1)C(O)=O)c1ccccc1], the pIC50 is listed as 5.046. In the case of `CC(C)CN(CCOCCN1CCC[C@@H](C(=O)O)C1)c1ccccc1` [An_2001/6_44, O(CCN1C[C@@H](CCC1)C(O)=O)CCN(CC(C)C)c1ccccc1], the pIC50 is given as 6.553.

Same assay, conditions: literature data set; ref 10.1021/jm00064a005; cited from earlier work
For `Cc1cc(Cl)ccc1/C(=C\CCN1CCC=C(C(=O)O)C1)c1sccc1C` [An_1993_45, Clc1cc(C)c(cc1)\C(=C/CCN1CC(=CCC1)C(O)=O)\c1sccc1C], the pIC50 is listed as 6.523. In the case of `Cc1ccsc1/C(=C/CCN1CCC=C(C(=O)O)C1)c1cc(Cl)cc(Cl)c1` [An_1993_38, Clc1cc(cc(Cl)c1)/C(=C\CCN1CC(=CCC1)C(O)=O)/c1sccc1C], the pIC50 is listed as 5.73. In the case of `Cc1ccccc1/C(=C\CCN1CCC[C@@H](C(=O)O)C1)c1sccc1C` [An_1993_31, s1ccc(C)c1/C(=C/CCN1C[C@@H](CCC1)C(O)=O)/c1ccccc1C], the pIC50 is listed as 7.097. For `Cc1ccsc1C(=CCCN1CCC[C@@H](C(=O)O)C1)c1sccc1C` [compound 5, tiagabine], the pIC50 is listed as 7.174. For `Cc1ccccc1/C(=C\CCN1CCC=C(C(=O)O)C1)c1sccc1C` [An_1993_33, s1ccc(C)c1/C(=C/CCN1CC(=CCC1)C(O)=O)/c1ccccc1C], the pIC50 is listed as 6.886.

Same assay, conditions: literature data set; ref 10.1021/jm980492e; cited from earlier work
For `CN(CCC(c1ccccc1)c1ccccc1)CCN1CCC[C@@H](C(=O)O)C1` [An_1999/4_(R)-35, OC(=O)[C@@H]1CCCN(C1)CCN(CCC(c1ccccc1)c1ccccc1)C], the pIC50 is listed as 5.244. For `O=C(O)[C@@H]1CCCN(CCOCCOCCN(c2ccccc2)c2ccccc2)C1` [An_1999/4_(R)-20, O(CCN1C[C@@H](CCC1)C(O)=O)CCOCCN(c1ccccc1)c1ccccc1], the pIC50 is given as 5.046. In the case of `O=C(O)[C@@H]1CCCN(CCOCC=C(c2ccc(F)cc2)c2ccc(F)cc2)C1` [An_1999/4_(R)-26, Fc1ccc(cc1)\C(=C\COCCN1C[C@@H](CCC1)C(O)=O)\c1ccc(F)cc1], the pIC50 is given as 5.836. For `O=C(O)[C@@H]1CCCN(CCCCCCCN(c2ccccc2)c2ccccc2)C1` [An_1999/4_(R)-14], the pIC50 is listed as 6.638. In the case of `O=C(O)[C@@H]1CCCN(CCCOCCCN(c2ccccc2)c2ccccc2)C1` [An_1999/4_(R)-19, O(CCCN1C[C@@H](CCC1)C(O)=O)CCCN(c1ccccc1)c1ccccc1], the pIC50 is listed as 5.523. For `O=C(O)[C@@H]1CCCN(CCCCCC(c2ccccc2)c2ccccc2)C1` [compound 9, OC(=O)[C@@H]1CCCN(C1)CCCCCC(c1ccccc1)c1ccccc1], the pIC50 is given as 5.799. In the case of `O=C(O)[C@@H]1CCCN(CCCCCCCCN(c2ccccc2)c2ccccc2)C1` [An_1999/4_(R)-15], the pIC50 is given as 5.889. For `O=C(O)[C@@H]1CCCN(CCCCCN(c2ccccc2)c2ccccc2)C1` [An_1999/4_(R)-12, OC(=O)[C@@H]1CCCN(C1)CCCCCN(c1ccccc1)c1ccccc1], the pIC50 is listed as 5.86. In the case of `O=C(O)[C@@H]1CCCN(CCOCC=C(c2ccccc2)c2ccccc2)C1` [An_1999/4_(R)-21, O(CCN1C[C@@H](CCC1)C(O)=O)C\C=C(\c1ccccc1)/c1ccccc1], the pIC50 is listed as 6.585.

Same assay, conditions: literature data set; ref 10.1021/jm981027k; cited from earlier work
In the case of `Cc1ccccc1C(=NOCCN1CCC[C@H](C(=O)O)C1)c1ccccc1C` [An_1999/3_63, O(\N=C(\c1ccccc1C)/c1ccccc1C)CCN1C[C@H](CCC1)C(O)=O], the pIC50 is given as 6.886. In the case of `Cc1ccccc1/C(=C\OCCN1CCC[C@@H](C(=O)O)C1)c1cccc(F)c1` [An_1999/3_71, Fc1cc(ccc1)/C(=C/OCCN1C[C@@H](CCC1)C(O)=O)/c1ccccc1C], the pIC50 is given as 7.523. In the case of `Cc1ccccc1/C(=C\OCCN1CCC=C(C(=O)O)C1)c1ccccc1F` [An_1999/3_72, Fc1ccccc1/C(=C/OCCN1CC(=CCC1)C(O)=O)/c1ccccc1C], the pIC50 is listed as 7.699. In the case of `Cc1ccccc1/C(=C/OCCN1CCC[C@@H](C(=O)O)C1)c1cccc(F)c1` [An_1999/3_76, Fc1cc(ccc1)/C(=C\OCCN1C[C@@H](CCC1)C(O)=O)/c1ccccc1C], the pIC50 is given as 7.301. For `Cc1ccsc1/C(=N\OCCN1CCC[C@@H](C(=O)O)C1)c1ccc(Cl)cc1Cl` [An_1999/3_85, Clc1cc(Cl)ccc1\C(=N\OCCN1C[C@@H](CCC1)C(O)=O)\c1sccc1C], the pIC50 is given as 7.523. For `O=C(O)[C@@H]1CCCN(CCO/N=C(\c2ccc(F)cc2F)c2cc(F)ccc2F)C1` [An_1999/3_67, Fc1cc(F)ccc1/C(=N\OCCN1C[C@@H](CCC1)C(O)=O)/c1cc(F)ccc1F], the pIC50 is given as 7.301. In the case of `Cc1ccccc1/C(=C/OCCN1CCC[C@@H](C(=O)O)C1)c1ccccc1` [An_1999/3_97, O(\C=C(\c1ccccc1C)/c1ccccc1)CCN1C[C@@H](CCC1)C(O)=O], the pIC50 is given as 7.301. For `Cc1ccccc1/C(=N/OCCN1CCC[C@H](C(=O)O)C1)c1sccc1C` [An_1999/3_82, s1ccc(C)c1/C(=N\OCCN1C[C@H](CCC1)C(O)=O)/c1ccccc1C], the pIC50 is given as 7.097. In the case of `Cc1cc(Cl)ccc1/C(=N/OCCN1CCC[C@@H](C(=O)O)C1)c1sccc1C` [An_1999/3_84, Clc1cc(C)c(cc1)\C(=N\OCCN1C[C@@H](CCC1)C(O)=O)\c1sccc1C], the pIC50 is listed as 7.046. For `O=C(O)[C@@H]1CCCN(CCOC=C(c2ccc(F)cc2Cl)c2ccc(F)cc2Cl)C1` [An_1999/3_111, Clc1cc(F)ccc1\C(=C\OCCN1C[C@@H](CCC1)C(O)=O)\c1ccc(F)cc1Cl], the pIC50 is given as 7.18. In the case of `O=C(O)[C@@H]1CCCN(CCOC=C(c2ccccc2)c2ccccc2)C1` [An_1999/3_47, O(\C=C(\c1ccccc1)/c1ccccc1)CCN1C[C@@H](CCC1)C(O)=O], the pIC50 is given as 7.066. For `Cc1ccccc1C(=NOCCN1CCC=C(C(=O)O)C1)c1ccccc1C` [An_1999/3_64, O(\N=C(\c1ccccc1C)/c1ccccc1C)CCN1CC(=CCC1)C(O)=O], the pIC50 is given as 7.222. For `O=C(O)[C@@H]1CCCN(CCOC=C(c2cccc(Cl)c2)c2cccc(Cl)c2)C1` [An_1999/3_112, Clc1cc(ccc1)\C(=C\OCCN1C[C@@H](CCC1)C(O)=O)\c1cc(Cl)ccc1], the pIC50 is listed as 6.699. For `CCc1ccccc1C(=NOCCN1CCC=C(C(=O)O)C1)c1ccccc1CC` [An_1999/3_88, O(\N=C(\c1ccccc1CC)/c1ccccc1CC)CCN1CC(=CCC1)C(O)=O], the pIC50 is given as 6.745. In the case of `Cc1ccccc1C(=COCCN1CCC=C(C(=O)O)C1)c1ccccc1C` [An_1999/3_70, O(\C=C(\c1ccccc1C)/c1ccccc1C)CCN1CC(=CCC1)C(O)=O], the pIC50 is given as 7.585. In the case of `Cc1ccccc1/C(=N\OCCN1CCC=C(C(=O)O)C1)c1cccc(Cl)c1` [An_1999/3_92, Clc1cc(ccc1)/C(=N/OCCN1CC(=CCC1)C(O)=O)/c1ccccc1C], the pIC50 is listed as 6.824. In the case of `Cc1ccccc1C(=NOCCN1CCC[C@@H](C(=O)O)C1)c1ccccc1C` [An_1999/3_62, O(\N=C(\c1ccccc1C)/c1ccccc1C)CCN1C[C@@H](CCC1)C(O)=O], the pIC50 is given as 7.155. For `COc1cccc(/C(=C/OCCN2CCC[C@@H](C(=O)O)C2)c2ccccc2C)c1` [An_1999/3_102, O(C)c1cc(ccc1)/C(=C/OCCN1C[C@@H](CCC1)C(O)=O)/c1ccccc1C], the pIC50 is given as 7.097. In the case of `Cc1ccccc1/C(=N\OCCN1CCC[C@H](C(=O)O)C1)c1cccc(Cl)c1` [An_1999/3_91, Clc1cc(ccc1)/C(=N/OCCN1C[C@H](CCC1)C(O)=O)/c1ccccc1C], the pIC50 is listed as 7.046.

Same assay, conditions: literature data set; ref 10.1021/jm990513k; cited from earlier work
For `O=C(O)[C@@H]1CCCN(CCOCCN2c3ccccc3C=Cc3ccccc32)C1` [An_2001/5_26, O(CCN1C[C@@H](CCC1)C(O)=O)CCN1c2c(C=Cc3c1cccc3)cccc2], the pIC50 is given as 6.187. For `O=C(O)[C@@H]1CCCN(CCON=C2c3ccccc3CCc3ccccc32)C1` [An_2001/5_16, O(\N=C/1\c2c(CCc3c\1cccc3)cccc2)CCN1C[C@@H](CCC1)C(O)=O], the pIC50 is listed as 5.936. For `O=C(O)[C@@H]1CCCN(CCOCCN2c3ccccc3Sc3ccccc32)C1` [An_2001/5_21, S1c2c(N(c3c1cccc3)CCOCCN1C[C@@H](CCC1)C(O)=O)cccc2], the pIC50 is listed as 6.509. In the case of `O=C(O)[C@@H]1CCCN(CCOC=C2c3ccccc3CCc3ccccc32)C1` [An_2001/5_18, O(\C=C/1\c2c(CCc3c\1cccc3)cccc2)CCN1C[C@@H](CCC1)C(O)=O], the pIC50 is given as 5.662. In the case of `O=C(O)[C@@H]1CCCN(CCOCCN2c3ccccc3Oc3ccccc32)C1` [An_2001/5_20, O1c2c(N(c3c1cccc3)CCOCCN1C[C@@H](CCC1)C(O)=O)cccc2], the pIC50 is given as 5.836. In the case of `O=C(O)C1=CCCN(CCOCCN2c3ccccc3CCc3ccccc32)C1` [An_2001/5_24, O(CCN1CC(=CCC1)C(O)=O)CCN1c2c(CCc3c1cccc3)cccc2], the pIC50 is listed as 6.194. In the case of `O=C(O)[C@@H]1CCCN(CCOCCCN2c3ccccc3CCc3ccccc32)C1` [An_2001/5_32, O(CCCN1c2c(CCc3c1cccc3)cccc2)CCN1C[C@@H](CCC1)C(O)=O], the pIC50 is listed as 6.155.
